System: hepatocytes
Test: Seq-Well scRNA-Seq of hepatocytes after APAP overdose (signature scores, DEG vs untreated)
Assay type: in vivo, mouse
Details: A24 vs untreated (UT)

CC(=O)Nc1ccc(O)cc1 [APAP, acetaminophen]
avg_logFC Ces3a: −0.3687 | avg_logFC Ces1d: −0.4289 | avg_logFC Cfh: 0.4009 | avg_logFC Cfi: 0.2516 | avg_logFC Chchd2: −0.3949 | avg_logFC Clpx: −0.4047 | avg_logFC Cltc: 0.4381 | avg_logFC Cmah: 0.3616 | avg_logFC Cmbl: −0.3124 | avg_logFC Cml1: −0.3269 | avg_logFC Cml2: 0.2654 | avg_logFC Copa: 0.3451 | avg_logFC Cox4i1: −0.4542 | avg_logFC Cox5b: −0.3378 | avg_logFC Cox6c: −0.5028 | avg_logFC Cox7a2: −0.3635 | avg_logFC Cp: 0.3174 | avg_logFC Cpb2: 0.3222 | avg_logFC Cps1: 0.3245 | avg_logFC Creld2: 0.6087 | avg_logFC Csad: −0.5313 | avg_logFC Csde1: 0.3269 | avg_logFC Cth: −0.5109 | avg_logFC Ctsc: 0.3004 | avg_logFC Cxcl1: 0.4498 | avg_logFC Cyb5: −0.7048 | avg_logFC Cyb5r3: 0.339 | avg_logFC Cyp4a10: −0.7422 | avg_logFC Dcxr: −0.4107 | avg_logFC Ddt: −0.4224 | avg_logFC Dhcr24: 0.4238 | avg_logFC Dnajc3: 0.4564 | avg_logFC Dnajc12: 0.3221 | avg_logFC Dstn: 0.3243 | avg_logFC Ech1: −0.4291 | avg_logFC Eef1a1: 0.4393 | avg_logFC Eef2: 0.2701 | avg_logFC Efna1: 0.3361 | avg_logFC Egfr: 0.505 | avg_logFC Eif4g1: 0.3108 | avg_logFC Eif4g2: 0.466 | avg_logFC Elovl2: 0.4522 | avg_logFC Elovl3: −0.676 | avg_logFC Ephx2: −0.3693 | avg_logFC Etnk1: 0.3521 | avg_logFC Etnppl: −0.4283 | avg_logFC Fabp2: −0.3922 | avg_logFC Fdx1: −0.3447 | avg_logFC Fga: 0.8285 | avg_logFC Fgb: 0.745 | avg_logFC Fgg: 0.6805 | avg_logFC Fgl1: 0.8649 | avg_logFC Fn1: 0.6996 | avg_logFC Fndc3b: 0.3485 | avg_logFC Fos: 0.432 | avg_logFC Fxyd1: −0.3118 | avg_logFC Gadd45g: −0.614 | avg_logFC Gas5: −0.3362 | avg_logFC Gchfr: −0.3869 | avg_logFC Gjb2: 0.3911 | avg_logFC Glud1: 0.451 | avg_logFC Gm4076: −0.3255 | avg_logFC Gm5096: −0.3631 | avg_logFC Gm13775: −1.032 | avg_logFC Gm15564: 1.821 | avg_logFC Gm24270: 0.268 | avg_logFC Gm24601: 0.9844 | avg_logFC Gm26917: 0.8237 | avg_logFC Gm26924: 1.419 | avg_logFC Gnmt: −0.4604 | avg_logFC Gpx1: −0.508 | avg_logFC Grip2: 0.8779 | avg_logFC Gsta3: −0.6694 | avg_logFC Hamp: −0.8261 | avg_logFC Hao1: 0.323 | avg_logFC Hbb-bs: 1.043 | avg_logFC Hc: 0.3679 | avg_logFC Hdlbp: 0.5651 | avg_logFC Hint1: −0.4737 | avg_logFC Hint2: −0.3702 | avg_logFC Hmgcs2: −0.3173 | avg_logFC Hnf4a: 0.4549 | avg_logFC Hook1: 0.3274 | avg_logFC Hp: 0.4313 | avg_logFC Hpd: −0.3133 | avg_logFC Hs3st3b1: 0.343 | avg_logFC Hsd3b7: −0.3953 | avg_logFC Hsp90b1: 0.5342 | avg_logFC Hspa5: 0.6105 | avg_logFC Hspa8: −0.36 | avg_logFC Hspa13: 0.3548 | avg_logFC Hyou1: 0.8465 | avg_logFC Ibtk: 0.3311 | avg_logFC Igfbp1: −0.3162 | avg_logFC Igfbp2: −0.3451 | avg_logFC Iigp1: 0.4542 | avg_logFC Il6st: 0.3335 | avg_logFC Il13ra1: 0.303 | avg_logFC Inmt: −0.4435 | avg_logFC Insig1: 0.4655 | avg_logFC Ipo7: 0.2592 | avg_logFC Itih2: 0.2987 | avg_logFC Itih3: 0.4929 | avg_logFC Itih4: 0.5251 | avg_logFC Khk: −0.2976 | avg_logFC Kmo: 0.3022 | avg_logFC Kng1: 0.2658 | avg_logFC Lars2: 1.711 | avg_logFC Lman1: 0.2986 | avg_logFC Lpgat1: 0.3946 | avg_logFC Lrg1: 0.4368 | avg_logFC Lrp1: 0.5051 | avg_logFC Lrrc59: 0.3181 | avg_logFC Manf: 0.4689 | avg_logFC Mlec: 0.3246 | avg_logFC Mpc1: −0.2818 | avg_logFC Mtus1: 0.3621 | avg_logFC Mug2: 0.3704 | avg_logFC Mup3: −0.8062 | avg_logFC Mup4: −1.087 | avg_logFC Mup5: −1.371 | avg_logFC Mup6: −1.678 | avg_logFC Mup8: −0.6133 | avg_logFC Mup9: −1.847 | avg_logFC Mup11: −1.611 | avg_logFC Mup13: −0.6949 | avg_logFC Mup15: −1.235 | avg_logFC Mup16: −1.019 | avg_logFC Mup17: −1.8 | avg_logFC Mup18: −1.727 | avg_logFC Mup19: −1.699 | avg_logFC Mup20: −0.2819 | avg_logFC Mup21: −0.6977 | avg_logFC Myh9: 0.6391 | avg_logFC Nab1: 0.3342 | avg_logFC Nars: 0.3532 | avg_logFC Ndufa4: −0.4433 | avg_logFC Ndufb2: −0.3412 | avg_logFC Ndufb4: −0.3251 | avg_logFC Ndufb11: −0.4275 | avg_logFC Ndufs6: −0.3592 | avg_logFC Nedd4: 0.3774 | avg_logFC Nr1d2: 0.4306 | avg_logFC Nr5a2: 0.322 | avg_logFC Oat: −0.5212 | avg_logFC Oaz1: −0.3748 | avg_logFC Orm1: 0.3651 | avg_logFC Orm2: 0.2715 | avg_logFC P4hb: 0.4052 | avg_logFC Pdcd4: 0.4882 | avg_logFC Pdia3: 0.5938 | avg_logFC Pdia4: 0.4882 | avg_logFC Pdia6: 0.3365 | avg_logFC Pgrmc1: 0.3502 | avg_logFC Plg: 0.2617 | avg_logFC Pon1: −0.3227 | avg_logFC Prdx1: −0.2677 | avg_logFC Prg4: 0.4306 | avg_logFC Prkd3: 0.3665 | avg_logFC Pten: 0.3559 | avg_logFC Pzp: 0.416 | avg_logFC Qsox1: 0.3424 | avg_logFC Rab1: 0.3526 | avg_logFC Rdh7: −0.269 | avg_logFC Rdx: 0.3736 | avg_logFC Retsat: −0.3658 | avg_logFC Rnase4: 0.5178 | avg_logFC Rpn1: 0.4124 | avg_logFC Rps2: −0.3845 | avg_logFC Rps27l: −0.5485 | avg_logFC Rrbp1: 0.3069 | avg_logFC Rsp14: −0.2923 | avg_logFC S100a1: −0.3762 | avg_logFC Saa1: 0.5582 | avg_logFC Saa2: 0.9645 | avg_logFC Saa4: 0.3755 | avg_logFC Sar1b: −0.3176 | avg_logFC Sc5d: 0.345 | avg_logFC Scd1: 0.7267 | avg_logFC Sds: −0.407 | avg_logFC Sec61a1: 0.3139 | avg_logFC Sel1l: 0.336 | avg_logFC Selenbp2: −0.3833 | avg_logFC Sephs2: 0.89 | avg_logFC Sepp1: 0.4486 | avg_logFC Serp1: 0.3124 | avg_logFC Serpina1a: −0.6752 | avg_logFC Serpina1b: −0.3018 | avg_logFC Serpina1c: −0.4026 | avg_logFC Serpina1e: −0.2843 | avg_logFC Serpina3c: −0.4089 | avg_logFC Serpina3n: 0.4137 | avg_logFC Serpina10: 0.565 | avg_logFC Serpina1d: −0.494 | avg_logFC Slc3a1: 0.341 | avg_logFC Slc7a2: 0.3526 | avg_logFC Slc38a4: 0.2637 | avg_logFC Snord118: 0.3914 | avg_logFC Sod1: −0.3036 | avg_logFC Sparcl1: −0.2536 | avg_logFC Spcs3: 0.3942 | avg_logFC Ssr1: 0.3278

Reference: US20230053540A1, “TREATMENT OF LIVER INJURY” (Massachusetts Institute of Technology, priority 2019, published 2023)
